This note sets out measurements from BindingDB's records for doi:10.7270/Q2N014XN (Srmlsc, 2007).

Structures are written as SMILES.

This assay concerns the target T1, Diphosphomevalonate decarboxylase (Streptococcus pneumoniae serotype 2 (strain D39 / NCTC 7466), UniProt A0A0H2ZN59).
T1 sequence (A0A0H2ZN59 whole entry): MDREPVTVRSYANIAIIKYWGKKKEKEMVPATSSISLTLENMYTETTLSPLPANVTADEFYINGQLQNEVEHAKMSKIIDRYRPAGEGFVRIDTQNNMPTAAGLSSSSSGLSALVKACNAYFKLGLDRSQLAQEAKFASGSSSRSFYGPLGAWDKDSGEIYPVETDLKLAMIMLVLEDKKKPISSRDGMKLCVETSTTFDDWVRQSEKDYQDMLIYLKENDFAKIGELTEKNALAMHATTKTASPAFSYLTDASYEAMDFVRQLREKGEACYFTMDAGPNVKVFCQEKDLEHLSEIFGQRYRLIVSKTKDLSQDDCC
In words: diphosphomevalonate decarboxylase inhibition dose curves – biochemical, PK/LDH-coupled NADH fluorescence, hexokinase coupling counter-screen, dose response (AID 550).

`OCCNc1ncnc2c1c(-c1ccccc1)c(-c1ccccc1)n2Cc1ccco1` [2-[[7-(2-furanylmethyl)-5,6-diphenyl-4-pyrrolo[2,3-d]pyrimidinyl]amino]ethanol] yielded an IC50 above 10000 µM. The molecule `CC(C)(O)P(C)(=O)c1ccccc1` (configuration not stated) [2-[methyl(phenyl)phosphoryl]-2-propanol] came in with a 50% inhibitory concentration (IC50) above 10000 µM. Molecule `Nc1c(C(=O)NCCN2CCOCC2)c2nc3ccccc3nc2n1-c1ccc2c(c1)OCO2` [2-amino-1-(1,3-benzodioxol-5-yl)-N-(2-morpholin-4-ylethyl)pyrrolo[3,2-b]quinoxaline-3-carboxamide] had an IC50 of 87.4 µM. On the same count and under the same terms, for `Nc1c(C(=O)NC2CCCC2)c2nc3ccccc3nc2n1N=Cc1cccnc1` [2-amino-N-cyclopentyl-1-(3-pyridinylmethylideneamino)-3-pyrrolo[3,2-b]quinoxalinecarboxamide] the value was 17.1 µM; for `Cc1ccc(S(=O)(=O)c2cc3c(=O)n4ccccc4nc3n(CC3CCCO3)c2=N)cc1C` (configuration not stated) [2-azanylidene-3-(3,4-dimethylphenyl)sulfonyl-1-(oxolan-2-ylmethyl)dipyrido[1,2-d:3',4'-f]pyrimidin-5-one], 43.6 µM; for `CCOC(=O)C(Cc1ccccc1)C(=O)Nc1nccs1` (configuration not stated) [2-benzyl-3-keto-3-(thiazol-2-ylamino)propionic acid ethyl ester], above 10000 µM.

Take `N#CC(C(=O)NC1CCCCC1)c1nc2ccccc2nc1N1CCCCC1` (configuration not stated) [2-cyano-N-cyclohexyl-2-(3-piperidin-1-ylquinoxalin-2-yl)acetamide]: the IC50 is above 10000 µM. On the same count and under the same terms, the value for `CCOc1ncccc1C(=O)Nc1ccc2c(C)cc(=O)oc2c1` [2-ethoxy-N-(2-keto-4-methyl-chromen-7-yl)nicotinamide] was above 10000 µM; that for `Cn1c(SCC(=O)N2CCOCC2)nnc1-c1ccc(NC(=O)c2ccccc2F)cc1` [2-fluoranyl-N-[4-[4-methyl-5-(2-morpholin-4-yl-2-oxidanylidene-ethyl)sulfanyl-1,2,4-triazol-3-yl]phenyl]benzamide] was above 10000 µM; that for `CCOC(=O)c1c(CC(C)C)csc1NC=O` [2-formamido-4-(2-methylpropyl)-3-thiophenecarboxylic acid ethyl ester] was above 10000 µM. Regarding `COc1ccc(-c2nsc3c(N4CCN(C(=O)c5ccco5)CC4)ncnc23)cc1` [2-furanyl-[4-[3-(4-methoxyphenyl)-7-isothiazolo[4,5-d]pyrimidinyl]-1-piperazinyl]methanone], 131 µM corresponded to half-maximal inhibition (IC50). `CCOC(=O)c1cc2c(=O)n3cccc(C)c3nc2n(CCc2ccccc2)c1=N` [2-imino-10-methyl-5-oxo-1-(2-phenylethyl)-3-dipyrido[3,4-c:1',2'-f]pyrimidinecarboxylic acid ethyl ester] came in with an IC50 of 27.2 µM. `CCOC(=O)c1cc2c(=O)n3ccccc3nc2n(C(C)C)/c1=N\C(=O)c1ccncc1` [2-isonicotinoylimino-1-isopropyl-5-keto-dipyrido[1,2-d:3',4'-f]pyrimidine-3-carboxylic acid ethyl ester] registered a 50% inhibitory concentration (IC50) of 15.2 µM. Regarding `COCCOC(=O)c1c(C)oc2ccc(NS(=O)(=O)c3ccc(F)cc3)cc12` [2-methoxyethyl 5-[(4-fluorophenyl)sulfonylamino]-2-methyl-1-benzofuran-3-carboxylate], the concentration for half-maximal inhibition (IC50) is above 10000 µM. The molecule `Cc1occc1C(=O)Nc1nnc(C(F)(F)F)s1` [2-methyl-N-[5-(trifluoromethyl)-1,3,4-thiadiazol-2-yl]-3-furamide] gave an IC50 above 10000 µM. As for `CC(C)(C)CC(=O)Nc1nnc(-c2cccs2)s1` [3,3-Dimethyl-N-(5-thiophen-2-yl-[1,3,4]thiadiazol-2-yl)-butyramide], the IC50 is above 10000 µM. `CC(C)c1nc(NCC2CCCO2)c(C#N)c2c1COC(C)(C)C2` (configuration not stated) [3,3-dimethyl-6-(2-oxolanylmethylamino)-8-propan-2-yl-1,4-dihydropyrano[3,4-c]pyridine-5-carbonitrile] returned an IC50 of 9.97 µM. In the case of `Cc1ccc(S(=O)(=O)NCCN2CCOCC2)cc1C` [3,4-Dimethyl-N-(2-morpholin-4-yl-ethyl)-benzenesulfonamide], the IC50 was above 10000 µM. Regarding `COc1ccc(C(=O)NCc2cn3c(C)csc3n2)cc1OC` [3,4-dimethoxy-N-[(3-methyl-6-imidazo[2,1-b]thiazolyl)methyl]benzamide], the IC50 was above 10000 µM. Molecule `N#Cc1c(NCCO)nc(NCc2ccccc2)c2c1CCN(Cc1ccccc1)C2` [3-(2-hydroxyethylamino)-7-(phenylmethyl)-1-[(phenylmethyl)amino]-6,8-dihydro-5H-2,7-naphthyridine-4-carbonitrile] displayed an IC50 of 38.6 µM.

With `COc1ccc(-c2coc3cc(O)ccc3c2=O)cc1OC` [3-(3,4-dimethoxyphenyl)-7-hydroxy-1-benzopyran-4-one], the IC50 came to 19 µM. Same read-out and setting: for `Clc1c(-c2nnc3n2CCC3)sc2ccccc12` [3-(3-chloranyl-1-benzothiophen-2-yl)-6,7-dihydro-5H-pyrrolo[2,1-c][1,2,4]triazole] the value was above 10000 µM; for `COc1ccc(-n2nc(C(=O)NCc3ccco3)c3c4ccccc4n(C)c3c2=O)cc1Cl` [3-(3-chloranyl-4-methoxy-phenyl)-N-(furan-2-ylmethyl)-5-methyl-4-oxidanylidene-pyridazino[4,5-b]indole-1-carboxamide], 15.1 µM; for `N#Cc1c(NCCCO)nc(NCc2ccccc2)c2c1CCN(Cc1ccccc1)C2` [3-(3-hydroxypropylamino)-7-(phenylmethyl)-1-[(phenylmethyl)amino]-6,8-dihydro-5H-2,7-naphthyridine-4-carbonitrile], 39.1 µM. On to `O=C(Nc1ccc(F)cc1)N(CCCN1CCOCC1)Cc1cc2cc3c(cc2[nH]c1=O)OCO3` [3-(4-fluorophenyl)-1-[3-(4-morpholinyl)propyl]-1-[(6-oxo-5H-[1,3]dioxolo[4,5-g]quinolin-7-yl)methyl]urea], for which the IC50 is 17.6 µM. `Cc1ccc(NC(=O)N(CCCN2CCOCC2)Cc2cc3cc4c(cc3[nH]c2=O)OCO4)cc1` [3-(4-methylphenyl)-1-(3-morpholin-4-ylpropyl)-1-[(6-oxidanylidene-5H-[1,3]dioxolo[4,5-g]quinolin-7-yl)methyl]urea] yielded an IC50 of 45.6 µM. In turn, `O=C(O)CCn1nnc(-c2cccs2)n1` [3-(5-Thiophen-2-yl-tetrazol-2-yl)-propionic acid] had an IC50 above 10000 µM.

With `Nc1c(C(=O)NC2CCCC2)sc2nc(-c3cccs3)ccc12` [3-Amino-6-thiophen-2-yl-thieno[2,3-b]pyridine-2-carboxylic acid cyclopentylamide], the IC50 is 172 µM.

As to `Cc1c(C(=O)OCC(C)(C)CN(C)C)oc2ccccc12` [3-Methyl-benzofuran-2-carboxylic acid 3-dimethylamino-2,2-dimethyl-propyl ester], the IC50 is above 10000 µM.

In the case of `COc1ccc(-c2cc(C(F)(F)F)nc(SCCC(=O)Nc3cc(C)on3)n2)cc1` [3-[4-(4-Methoxy-phenyl)-6-trifluoromethyl-pyrimidin-2-ylsulfanyl]-N-(5-methyl-isoxazol-3-yl)-propionamide], the concentration for half-maximal inhibition (IC50) is above 10000 µM. `CCOc1nc(-c2ccccc2)ccc1-c1noc(-c2ccc(OC)c(OC)c2)n1` [3-[5-(3,4-Dimethoxy-phenyl)-[1,2,4]oxadiazol-3-yl]-2-ethoxy-6-phenyl-pyridine]: the IC50 is above 10000 µM. In the case of `CN(C)Cc1nc2ccccc2c(=O)n1Cc1nc(-c2cc3ccccc3o2)cs1` [3-[[4-(1-benzofuran-2-yl)-1,3-thiazol-2-yl]methyl]-2-[(dimethylamino)methyl]quinazolin-4-one], the IC50 is above 10000 µM. Consider `COc1ccc(-c2c3c(nc4sc(C(=O)Nc5cc(C)on5)c(N)c24)CCC3)cc1` [3-amino-4-(4-methoxyphenyl)-N-(5-methyl-3-isoxazolyl)-6,7-dihydro-5H-cyclopenta[b]thieno[3,2-e]pyridine-2-carboxamide], for which the IC50 came out at 8.33 µM. Regarding `Nc1cc(C(=O)O)ccc1Nc1ccccc1` [3-amino-4-anilino-benzoic acid], the IC50 (inactive by the depositor's call) worked out at 120 µM. For the molecule `COC(=O)c1sc2nc(-c3ccco3)ccc2c1N` [3-amino-6-(2-furanyl)-2-thieno[2,3-b]pyridinecarboxylic acid methyl ester], the IC50 was 28.7 µM. `O=C(NC1CCCCC1)N(CCN1CCCC1)Cc1cc2cc3c(cc2[nH]c1=O)OCCO3` [3-cyclohexyl-1-[(7-oxo-3,6-dihydro-2H-[1,4]dioxino[2,3-g]quinolin-8-yl)methyl]-1-[2-(1-pyrrolidinyl)ethyl]urea] returned an IC50 of 15 µM. In turn, `CCOC(=O)CC(=O)CSc1ccc2nnc(-c3ccc(C)cc3)n2n1` [3-keto-4-[[3-(p-tolyl)-[1,2,4]triazolo[4,3-b]pyridazin-6-yl]thio]butyric acid ethyl ester] came in with an IC50 of 287 µM.

For the molecule `COc1cccc(C(=O)Nc2ccc(NC(=O)C(C)C)nc2)c1` [3-methoxy-N-[6-(2-methylpropanoylamino)pyridin-3-yl]benzamide], the IC50 was above 10000 µM. For `Cc1c(C(=O)NCC2CCCO2)sc2nc(-c3ccccc3)cn12` (configuration not stated) [3-methyl-6-phenyl-N-(tetrahydrofurfuryl)imidazo[2,1-b]thiazole-2-carboxamide], the IC50 was above 10000 µM. In turn, `Cc1c(C(=O)NCc2ccc3c(c2)OCO3)sc2nc(-c3ccccc3)cn12` [3-methyl-6-phenyl-N-piperonyl-imidazo[2,1-b]thiazole-2-carboxamide] registered an IC50 above 10000 µM.

`CC(C)CC(=O)NCC(C)NC(=O)CC(C)C` (configuration not stated) [3-methyl-N-[2-(3-methylbutanoylamino)propyl]butanamide] displayed an IC50 above 10000 µM.

Consider `Cc1ccccc1Cc1c(C)nc2c(C(=O)N3CCN(Cc4ccc5c(c4)OCO5)CC3)cnn2c1C` [3-{[4-(1,3-benzodioxol-5-ylmethyl)piperazin-1-yl]carbonyl}-5,7-dimethyl-6-(2-methylbenzyl)pyrazolo[1,5-a]pyrimidine], for which the concentration for half-maximal inhibition (IC50) was above 10000 µM.
